From paper PMC7311950, “Potent Tetrahydroquinolone Eliminates Apicomplexan Parasites” (Frontiers in Cellular and Infection Microbiology, 2020)
Entries after “also recorded” stand apart in the source; their conditions may differ.

How the values were obtained:
[1] = target: T1, P. falciparum bc1 complex cytochrome c reductase (Pfbc1) (Plasmodium falciparum, UniProt Q02768); experiment: Pfbc1 native assay (cytochrome c reduction by parasite extract); type: biochemical; conditions: atovaquone 1 μM positive control, X ± S.D., N = 4
T1 construct: Parasite extract was then prepared by disruption with a sonicating probe; endogenous in cells; host or cells: P. falciparum strain 3D7 blood-stage culture, sonicated parasite extract
T1 sequence (Q02768 1-376): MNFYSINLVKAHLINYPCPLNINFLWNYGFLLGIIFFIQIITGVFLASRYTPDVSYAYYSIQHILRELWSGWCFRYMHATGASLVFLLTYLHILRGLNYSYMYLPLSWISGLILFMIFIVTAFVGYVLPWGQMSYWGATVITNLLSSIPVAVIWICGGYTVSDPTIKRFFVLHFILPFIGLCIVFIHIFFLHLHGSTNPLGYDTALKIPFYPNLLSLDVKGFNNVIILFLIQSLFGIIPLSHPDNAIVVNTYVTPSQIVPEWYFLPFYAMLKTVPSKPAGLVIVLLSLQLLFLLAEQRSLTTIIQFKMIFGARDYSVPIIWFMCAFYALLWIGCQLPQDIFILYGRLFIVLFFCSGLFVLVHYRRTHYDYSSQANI
Experimental: P. falciparum 3D7 strain were obtained from the Liverpool School of Tropical Medicine. Protease cocktail inhibitor was obtained from Roche. Bradford protein assay dye reagent was obtained from Bio-Rad. All other reagents were obtained from Sigma-Aldrich. Decylubiquinol was produced as per Fisher et al. ([2009]). In brief, 25 mg of decylubiquinone were dissolved in 400 μL of nitrogen-saturated hexane. An equal volume of aqueous 1 M sodium dithionite was added, and the mixture vortexed until colorless. The organic phase containing the decylubiquinol was collected, the solvent was evaporated under N2 and the decylubiquinol finally dissolved in 100 μL of 96% ethanol (acidified with 10 mM HCl). Concentrations of decylubiquinol was determined spectrophotometrically on a Cary 300 Bio UV/visible spectrophotometer (Varian, UK) from absolute spectra, using ε288−−320 = 8.1 mM^−1.cm^−1. Decylubiquinol was stored at −80°C and used within 2 weeks. […]
The protocol for the preparation of parasite extract was adapted from Fisher et al. ([2009]). […] The protein concentration of the parasite extract was determined by Bradford protein assay (Bio-Rad).
P. falciparum bc1 complex cytochrome c reductase (Pfbc1) activity was measured by monitoring cytochrome c reduction at 550 vs. 542 nm using a Cary 300 Bio UV-Visible Spectrophotometer (Varian, UK), using a protocol adapted from Fisher et al. ([2009]). […]

T. gondii Me49 strain = experiment: Established chronic Me49 infection of Balb/C mice, brain cysts; type: in vivo, Toxoplasma gondii; conditions: treatment begun day 30 after infection, IP daily for 14 days
Experimental: In separate experiments, Balb/C mice were infected IP with 20 × 10^3 T. gondii Me49 strain tachyzoites. In these separate studies of mice with established chronic infection, after 30 days, IP treatment with JAG21 was begun each day for 14 days. JAG21 was dissolved in DMSO and administered IP in a total volume of 0.05 mL. In experiments when tafenoquine was administered alone or with JAG21 in some groups 3 mg/kg tafenoquine was administered once on day−1 from when JAG21 treatment was initiated. Cysts in brain were quantitated on day […], 16 days after discontinuing JAG21. Immunoperoxidase staining was performed. Parasite burden was quantitated in two ways. The first was using a positive pixel count algorithm of Aperio ImageScope software. Positive pixels were normalized to tissue area (mm^2). Briefly, automated quantitation was done by counting positive pixels per square area. The entire brain in one section was scanned for each mouse. The Cyst burden was quantitated as units of positive pixels per mm^2. The average ± S.E.M. numbers of mm^2 per slide quantitated was 30.2±1.6 square mm per mouse for this quantification. Each highpower field of view shown in Figure 5C is ~0.02 mm^2 per field of view. Cysts on each slide for each condition in two biological replicate experiments were also quantitated by 2 separate observers independently and results compared with automated counting, separately.

## Cc1[nH]c2c(c(=O)c1-c1ccc(Oc3ccc(OC(F)(F)F)cc3)cc1)CCCC2 [JAG21, 2-Methyl-3-(4-(4-(Trifluoromethoxy)Phenoxy)Phenyl)-5,6,7,8-Tetrahydroquinolin-4-One]
[1]
  inhibition at 1 µM: 86.4 ± 3.2%
T. gondii Me49 strain
  Me49 brain cysts: marked, statistically significant reduction; also recorded: markedly reduce
